SMILES strings stand for the structures.

A short description of data set [1]: Tested for water solubility of the compound. It is filed as ADME. As to conditions: read-out: S.
The target in data set [2] is T1, Acetylcholinesterase (Homo sapiens, UniProt P22303).
Data set [3] concerns the target T1, Acetylcholinesterase. This is another data set of the same source.
Description: In vitro reversal of vecuronium-induced neuromuscular block in guinea pig hemi-diaphragm.
The test system of data set [4] is Felis catus. Description: Change in response to vagal stimulation was detected in anaesthetised cats on administration of the compound. It counts as functional.
For data set [5], the system named is Felis catus. Description: Effective dose required for the reversal of vecuronium-induced neuromuscular block in-vivo in Chloaralose anaesthetised cats. It counts as functional.
In data set [6] the test system is Felis catus. As to the kind of experiment: Mean arterial pressure change was detected in anaesthetised cats on administration of the compound. It counts as functional, Artery.
The subject of data set [7] is Felis catus. As to the kind of experiment: Change in heart rate was detected in anaesthetised cats on administration of the compound. It is filed as functional.
Data set [8] concerns Felis catus. As to the kind of experiment: Maximum reversal of vecuronium-induced neuromuscular block in-vivo in anaesthetised cats. It is filed as functional.
Data set [9] concerns Felis catus. As to the kind of experiment: Maximum reversal of vecuronium-induced neuromuscular block in-vivo in anaesthetised cats at 1.28 umol/kg. It counts as functional.
The target of data set [10] is T1, Acetylcholinesterase. Description: In vitro inhibition of human recombinant AChE.

T1 sequence (P22303 whole entry): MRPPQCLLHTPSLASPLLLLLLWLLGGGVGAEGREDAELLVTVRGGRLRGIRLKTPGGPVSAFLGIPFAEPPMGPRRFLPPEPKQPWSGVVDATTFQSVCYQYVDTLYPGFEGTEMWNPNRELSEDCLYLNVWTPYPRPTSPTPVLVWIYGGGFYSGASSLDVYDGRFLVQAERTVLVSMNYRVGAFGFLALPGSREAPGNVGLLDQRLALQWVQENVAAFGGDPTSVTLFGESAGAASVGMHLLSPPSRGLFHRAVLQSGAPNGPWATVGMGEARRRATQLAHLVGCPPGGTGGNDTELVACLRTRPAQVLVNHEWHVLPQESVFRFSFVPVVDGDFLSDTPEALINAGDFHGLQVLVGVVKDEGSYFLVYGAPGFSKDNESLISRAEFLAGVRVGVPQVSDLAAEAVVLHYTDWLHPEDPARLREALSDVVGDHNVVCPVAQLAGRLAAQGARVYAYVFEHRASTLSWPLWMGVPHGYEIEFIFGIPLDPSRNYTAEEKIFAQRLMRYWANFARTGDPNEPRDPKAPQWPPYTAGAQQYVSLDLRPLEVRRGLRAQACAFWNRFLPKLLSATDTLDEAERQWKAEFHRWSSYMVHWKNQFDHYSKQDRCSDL

On to `C[N@+]1(Cc2ccccc2)CC[C@H](CCC(=O)c2ccc3c(c2)CCO3)CC1`, for which, in data set [1], the solubility is greater than 10000 µg/mL. On Acetylcholinesterase [2], this compound had an IC50 of 66 nM.
Consider `Cc1cc(C(=O)CCC2CC[N+](C)(Cc3ccccc3)CC2)nn1-c1ccccc1` (configuration not stated), for which the solubility in [1] came to 2000 µg/mL. In addition, the IC50 against Acetylcholinesterase [2] stood at 22 nM. Further, the EC50 at Acetylcholinesterase [3] turned out to be 430 nM.
With `COc1cc2c(cc1OC)C(=O)C(CC1CCN(Cc3ccccc3)CC1)C2` (configuration not stated) [DONEPEZIL], the Vagus in the data set on Felis catus [4] amounted to 14 delta %. Also, the 50% effective dose (ED50) with Felis catus [5] came to 0.53 µmol/kg. In addition, in the data set with Felis catus [6], the MAP is recorded as -12 delta %. Further, the HR in the data set with Felis catus [7] was -12 delta %. The Max rev in the data set with Felis catus [8] is 106%.
Regarding `C[N+]1(Cc2ccccc2)CCC(CCC(=O)c2ccc3c(c2)OCCO3)CC1` (configuration not stated), the solubility in data set [1] was less than 500 µg/mL. In addition, the 50% inhibitory concentration (IC50) against Acetylcholinesterase [2] was 100 nM. The same compound returned an EC50 at Acetylcholinesterase [3] greater than 3000 nM.
For `COc1cc2c(cc1OC)C(=O)C(C(O)C1CC[N+](C)(Cc3ccccc3)CC1)C2` (configuration not stated), the Max rev in the data set on Felis catus [9] came to 109%. Moreover, the Vagus in the data set on Felis catus [4] is recorded as 18 delta %. In the data set with Felis catus [5], the ED50 stood at 0.21 µmol/kg. The compound also showed a concentration for a half-maximal effect (EC50) on Acetylcholinesterase [3] of 1440 nM. In addition, the MAP in the data set on Felis catus [6] is given as -22 delta %. In the data set with Felis catus [7], the HR is given as -12 delta %.
For `C[N+]1(Cc2ccccc2)CCC(CCC(=O)c2ccc3c(c2)NCCCC3)CC1` (configuration not stated), in the data set on Felis catus [4], the Vagus is 10 delta %. In the data set with Felis catus [5], the median effective dose (ED50) turned out to be 0.15 µmol/kg. The compound further showed an IC50 against Acetylcholinesterase [2] of less than 500 nM. Further, the EC50 on Acetylcholinesterase [3] amounted to 331 nM. The MAP with Felis catus [6] is reported as -6 delta %. The HR in the data set with Felis catus [7] worked out at 4 delta %. Moreover, the Max rev in the data set on Felis catus [8] worked out at 140%.
`COc1ccc2cc(C(=O)CCC3CC[N+](C)(Cc4ccccc4)CC3)ccc2c1` (configuration not stated): in data set [1], the solubility was less than 1000 µg/mL. In addition, the IC50 against Acetylcholinesterase [2] turned out to be 50 nM. The compound also gave an EC50 on Acetylcholinesterase [3] of 530 nM.
`COc1cc2c(cc1OC)C(=O)/C(=C/c1cc[n+](Cc3ccccc3)cc1)C2` displayed an EC50 at Acetylcholinesterase [3] of 12 nM. That is a double-digit nanomolar value.
As to `CC1=CC2Cc3[nH]c(=O)ccc3C3(C1)C2CCCN3C` (configuration not stated), the IC50 against Acetylcholinesterase [2] was greater than 100000 nM. The EC50 on Acetylcholinesterase [3] is greater than 10000 nM.
Take `O=C(CCC1CCN(Cc2ccccc2)CC1)c1ccc2c(c1)NCCCC2` [ZANAPEZIL]: the Vagus in the data set with Felis catus [4] was found to be 8 delta %. Besides, in the data set on Felis catus [5], the ED50 was 3.7 µmol/kg. In the data set on Felis catus [6], the MAP was -11 delta %. For the same compound, the HR in the data set on Felis catus [7] is given as -5 delta %. For the same compound, in the data set with Felis catus [8], the Max rev was 68%.
`COc1cc2c(cc1OC)C(=O)[C@@H]([C@H](O)C1CC[N+](C)(Cc3ccccc3)CC1)C2` (some centres not stated): the EC50 on Acetylcholinesterase [3] amounted to 890 nM.
`COc1cc2c(cc1OC)C(=O)C(CC1CC[N+](C)(Cc3ccccc3)CC1)C2` (configuration not stated) gave a Vagus with Felis catus [4] of 37 delta %. Besides, in the data set on Felis catus [5], the ED50 was roughly 0.06 µmol/kg. The compound also yielded an IC50 against Acetylcholinesterase [2] of 25 nM. Also, the EC50 at Acetylcholinesterase [3] came out at 100 nM. Further, in the data set on Felis catus [6], the MAP is -22 delta %. Besides, the HR with Felis catus [7] was determined as 11 delta %. Further, the Max rev in the data set on Felis catus [8] amounted to 131%.
For the compound `C[N+]1(Cc2ccccc2)CCC(CCC(=O)c2ccc3c(c2)CCO3)CC1` (configuration not stated), the solubility in [1] was determined as 1500 µg/mL. This compound also came in with an IC50 against Acetylcholinesterase [2] of 17 nM. Also, a half-maximal response at Acetylcholinesterase [3] (EC50) required 90 nM.
Consider `C[N+]1(Cc2ccccc2)CCC(CCC(=O)c2ccc3c(c2)OCO3)CC1` (configuration not stated), for which, in data set [1], the solubility came out at 500 µg/mL. On Acetylcholinesterase [2], this compound returned a concentration for half-maximal inhibition (IC50) of 240 nM. The same compound gave an EC50 on Acetylcholinesterase [3] of 1700 nM.
On Acetylcholinesterase [3], `COc1cc2c(cc1OC)C(=O)[C@@H]([C@@H](O)C1CC[N+](C)(Cc3ccccc3)CC1)C2` (some centres not stated) had an EC50 of 2700 nM.
With `COc1cc2c(cc1OC)C(=O)C(C(O)c1cc[n+](Cc3ccccc3)cc1)C2` (configuration not stated), at Acetylcholinesterase [3], the EC50 came to 1880 nM.
On to `COc1ccc2c3c1OC1C[C@@H](O)C=C[C@@]31CC[N+](C)(C)C2` (some centres not stated), for which the Vagus with Felis catus [4] came to 80 delta %. Further, in the data set with Felis catus [5], the ED50 stood at 0.1 µmol/kg. This compound returned an IC50 against Acetylcholinesterase [2] of roughly 500 nM. The same compound yielded an EC50 on Acetylcholinesterase [3] of 630 nM. Further, in the data set on Felis catus [6], the MAP was 16 delta %. In the data set on Felis catus [7], the HR was -5 delta %. Further, the Max rev in the data set with Felis catus [8] was 130%.
In the case of `COc1cc2cc(C(=O)CCC3CC[N+](C)(Cc4ccccc4)CC3)sc2cc1OC` (configuration not stated), the solubility in data set [1] was 2000 µg/mL. The same compound displayed an IC50 against Acetylcholinesterase [2] of 8 nM. Also, the midpoint of the response at Acetylcholinesterase [3], the EC50, lay at 19 nM.
The like results for `COc1cc2cc(C(=O)CCC3CC[N+](C)(Cc4ccccc4)CC3)n(C)c2cc1OC` (configuration not stated) were, in that order, 1200 µg/mL, 120 nM and 1600 nM.
At Acetylcholinesterase [3], `COc1cc2c(cc1OC)C(=O)C(Cc1cc[n+](Cc3ccccc3)cc1)C2` (configuration not stated) came in with an EC50 of 100 nM.
Consider `COc1cc2c(cc1OC)C(=O)C(C(O)C1CC[N+](Cc3ccccc3)(Cc3ccccc3)CC1)C2` (configuration not stated), for which the EC50 at Acetylcholinesterase [3] was 43500 nM.
Turning to `C[N+]1(Cc2ccccc2)CCC(CCC(=O)c2ccc3c(c2)CCCCO3)CC1` (configuration not stated), in [1], the solubility is 5000 µg/mL. This compound returned an IC50 against Acetylcholinesterase [2] of 139 nM.
The compound `CC1=C[C@H]2Cc3[nH]c(=O)ccc3[C@]3(C1)NCCC[C@H]23` [HUPERZINE B] returned a Vagus with Felis catus [4] of 102 delta %. Moreover, the ED50 in the data set on Felis catus [5] stood at 0.08 µmol/kg. For the same compound, the IC50 on Acetylcholinesterase [10] is 30 nM. In addition, on Acetylcholinesterase [3], the midpoint of the response, the EC50, lay at 19 nM. In the data set on Felis catus [6], the MAP is listed as -17 delta %. Also, the HR in the data set with Felis catus [7] is reported as -8 delta %. The Max rev in the data set on Felis catus [8] is 156%.

One may read the IC50 as the concentration needed to halve the response being measured. The EC50 is the concentration at which the effect is half-maximal. Usually ED50 stands for the dose that gives a 50% effect, or the effect in half of the subjects.

The record behind these values is ChEMBL document CHEMBL1135324, “Quaternary salts of E2020 analogues as acetylcholinesterase inhibitors for the reversal of neuromuscular block” (Bioorg Med Chem Lett, 2002).
